Biological target: T1, human HCN1 channel (Homo sapiens, UniProt O60741, S680F)
T1 construct: Effect of ZD 7288 (100 micromolar) on hHCN1 (full-length) currents; expressed in transfected cells; host or cells: HEK 293F
T1 sequence (O60741 1-890 S680F): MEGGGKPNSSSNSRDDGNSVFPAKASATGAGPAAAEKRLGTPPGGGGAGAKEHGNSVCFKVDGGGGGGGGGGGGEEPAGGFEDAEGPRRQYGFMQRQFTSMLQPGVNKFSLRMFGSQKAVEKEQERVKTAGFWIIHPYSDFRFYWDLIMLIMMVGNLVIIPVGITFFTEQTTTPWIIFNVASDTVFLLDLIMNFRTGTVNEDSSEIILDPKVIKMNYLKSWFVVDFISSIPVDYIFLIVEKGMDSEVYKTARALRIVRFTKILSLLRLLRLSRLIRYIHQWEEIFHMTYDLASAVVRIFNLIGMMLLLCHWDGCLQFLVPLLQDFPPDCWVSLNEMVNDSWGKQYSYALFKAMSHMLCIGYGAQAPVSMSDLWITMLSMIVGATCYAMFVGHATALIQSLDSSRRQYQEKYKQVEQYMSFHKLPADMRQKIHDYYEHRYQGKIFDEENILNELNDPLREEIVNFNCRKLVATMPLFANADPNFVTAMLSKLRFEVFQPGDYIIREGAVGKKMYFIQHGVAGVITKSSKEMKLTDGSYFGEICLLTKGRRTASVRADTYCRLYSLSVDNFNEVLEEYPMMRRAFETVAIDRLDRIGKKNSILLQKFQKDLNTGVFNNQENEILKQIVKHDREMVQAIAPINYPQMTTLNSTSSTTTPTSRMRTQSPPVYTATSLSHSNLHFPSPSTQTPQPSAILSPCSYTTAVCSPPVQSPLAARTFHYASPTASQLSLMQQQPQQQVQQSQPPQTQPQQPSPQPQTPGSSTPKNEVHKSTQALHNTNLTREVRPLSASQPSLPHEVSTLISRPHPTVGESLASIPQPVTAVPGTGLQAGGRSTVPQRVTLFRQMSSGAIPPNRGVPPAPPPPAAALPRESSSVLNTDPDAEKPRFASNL
Assay: Whole-cell patch-clamp functional assay for human HCN1 channel currents
Type: cell-based
Details: HEK293 cells expressing human HCN1, step to -120 mV from holding -40 mV
Procedure: Human HCN1 channel currents were detected under voltage-clamp using the whole-cell configuration of the patch-clamp technique. Appropriate cells (HEK293) expressing human HCN1 channel subunits were placed in a recording chamber containing extracellular solution (Sodium chloride 135 mM; Potassium chloride 5 mM; Calcium chloride 1.8 mM; Magnesium chloride 0.5 mM; HEPES 5 mM) at a temperature of 20-25 degrees centigrade. In some experiments the extracellular solution contained 30 mM Potassium chloride, in which cases the Sodium chloride concentration was reduced to 110 mM. […] The membrane current was recorded throughout the experiment. […] The membrane current was measured just after (1-10 milliseconds) the start of the hyperpolarising step and just before (10-100 milliseconds) its end. […] For each cell, the current amplitude was determined first in normal extracellular solution and then in extracellular solution containing caesium chloride (FIG. 3) or ZD 7288 (FIGS. 4 and 7). Alternatively, the effect of caesium chloride (5 mM) on human HCN1 channel currents was determined by measuring the current-voltage relationship in normal extracellular solution and also in extracellular solution containing caesium chloride (FIG. 6). […]

| SMILES | Effect on human HCN1 channel currents (ZD 7288 100 micromolar in extracellular solution) | Effect on human HCN1 channel currents (caesium chloride 5 mM in extracellular solution) |
| --- | --- | --- |
| CCN(c1ccccc1)c1cc(=NC)n(C)c(C)n1.Cl [ZD 7288] | reduced | – |
| [Cl-].[Cs+] [caesium chloride] | – | reduced |
